The NIST ThermoML archive (doi:10.1016/j.jct.2008.07.016)
± gives the expanded uncertainty stated by the source.

Assay: molar enthalpy of vaporization or sublimation
Conditions: 298.15 K; Crystal; microcalorimetry

Question: With `Brc1ccc2[nH]ccc2c1` [1H-indole, 5-bromo-] as the compound, how does the molar enthalpy read?
Answer: 22.1 ± 1.1 kcal/mol

Question: Which molar enthalpy does the source give for `Brc1ccc2c(c1)CCN2` [5-Bromoindoline] here?
Answer: 21 ± 0.908 kcal/mol
